# According to ChEMBL document CHEMBL1158304, “New Oxygenated Cephalotaxus Alkaloids from Cephalotaxus harringtonia var. drupacea” (J Nat Prod, 1996):
# Test system: P388
# Assay: Cytotoxicity against mouse P388 cells
# Format: functional, cell-based
row,SMILES,IC50 [mg/L]
1,COC(=O)C[C@](O)(CCCC(C)C)C(=O)O[C@@H]1C(OC)=C[C@]23CCCN2C[C@H](O)c2cc4c(cc2[C@H]13)OCO4,0.33
2,COC(=O)C[C@](O)(CCC(C)C)C(=O)O[C@@H]1C(OC)=C[C@]23CCCN2C[C@H](O)c2cc4c(cc2[C@H]13)OCO4,0.17
3,COC(=O)C[C@](O)(CCCC(C)C)C(=O)O[C@@H]1C(OC)=C[C@]23CCCN2C[C@@H](O)c2cc4c(cc2[C@H]13)OCO4,0.38
